Paper PMC7373766, “In vitro and in vivo Evaluation of in silico Predicted Pneumococcal UDPG:PP Inhibitors” (Frontiers in Microbiology, 2020)

Experiments:
[1] = test system: S. pneumoniae polysaccharide capsule / bacterial size; assay: FITC-dextran exclusion assay (degree of encapsulation); type: cell-based
Method: The degree of encapsulation was determined by measuring the zone of exclusion of FITC-dextran (200 kDa, Sigma-Aldrich), as described previously ([Gates et al., 2004]; [Weinberger et al., 2009]; [Cools et al., 2018]). Briefly, bacteria were grown as described earlier until logarithmic phase with or without 50 μM of compound, centrifuged for 5 min at 5000 g and resuspended in PBS. To 100 μL of bacterial suspension 20 μL FITC-dextran (10 μg/mL in water) was added and 10 μL of this suspension was subsequently used to create wet mounts with cover slips. The slides were viewed on a Zeiss Observer.Z1 microscope with a 100x objective, and fluorescent images were captured with a Zeiss AxioCam MRm camera. The images were converted into grayscale and analyzed using ImageJ software. The area of FITC exclusion was determined. For each fluorescent image, a brightfield image was also recorded in order to count the number of bacteria per chain. For each strain, the mean of 150–300 cells was determined, and at least two images were collected from each of at least two independently prepared slides.

[2] = Cytotoxicity assay (resazurin); type: cell-based; details: human, MRC-5 cells, maximal tested concentration 64 μM
Method: MRC-5 cells were grown into polystyrene 96-well plates at an initial concentration of 1.5 × 10^5 cells/mL cells per well and incubated at 37°C and 5% CO2. In each well, 190 μL of cell suspension was added together with 10 μL of watery compound dilutions. Cell growth was compared to untreated control wells (100% cell growth) and medium-control wells (0% cell growth). After 3 days of incubation, cell viability was assessed using resazurin as described earlier. […] Tamoxifen was used as a positive control.

[3] = test system: L. monocytogenes; parameters: method as in Kuenemann et al., 2018; details: previous research; ref Kuenemann et al., 2018; cited from earlier work
[4] = test system: S. pneumoniae; assay: Galleria mellonella killing assay; type: in vivo
Method: Larvae were purchased from a local vendor (Anaconda Reptiles, Kontich, Belgium) and stored in wood chips at 15°C before use. Four hours before use, larvae were put at 4°C. A sterile 20 μL Hamilton syringe was used to inject 10 μL aliquots of bacterial suspensions into the hindmost left proleg of Galleria mellonella. Bacteria were grown mid logarithmic phase for 6 h with or without 1, 10, 50 or 200 μM compounds, washed and resuspended in PBS before infection. The control group was injected with 10 μL PBS. A minimum of 10 larvae per group was used. Following the injections, larvae were incubated at 37°C in the dark for several days to allow progression of the pneumococcal infection. Every 24 h, larvae were scored as dead or alive. Larvae were determined dead when no signs of movement could be observed in response to external stimuli. For each strain, at least four independent repeats were carried out.

## NCCCOc1cccc(C(=O)NC2CCCC(n3cnc4c(N)ncnc43)C2O)c1 (centres unmarked) [BDH 33910188]
[1]; strain M23 galU mutant, 50 μM of compound
  Effect on bacterial size (area of FITC-dextran exclusion): no effect
[2]
  CC50 at 3 days: > 64 µM

## NCCOc1cccc(C(=O)NC2CCCC(n3ccc(=O)[nH]c3=O)C2O)c1 (centres unmarked) [BDH 33910157]
[3]
  Activity on L. monocytogenes: active
[1]; strain R6, 50 μM of compound
  Effect on bacterial size (area of FITC-dextran exclusion): no effect
[4]; strain TIGR4 grown with 1 μM compound
  Effect on larval survival, dose-response: inactive
[4]; strain TIGR4 grown with 10 μM compound
  Effect on larval survival, dose-response: inactive
[4]; strain TIGR4 grown with 50 μM compound
  Effect on larval survival, dose-response: significantly improved larval survival
[4]; strain TIGR4 grown with 200 μM compound
  Effect on larval survival, dose-response: significantly improved larval survival
[2]
  CC50 at 3 days: > 64 µM

## NCCCOc1cccc(C(=O)NC2CCC(n3cc(F)c(=O)[nH]c3=O)C(O)C2O)c1 (centres unmarked) [BDG 33920985]
[3]
  Activity on L. monocytogenes: active
[2]
  CC50 at 3 days: 43.7 µM
